Source: PMC11611271, “Rapid prediction of key residues for foldability by machine learning model enables the design of highly functional libraries with hyperstable constrained peptide scaffolds” (PLOS Computational Biology, 2024)
Where a SMILES comes first, the peptide text is derived from it. Bridges are numbered along the chain shown (N, C = ends). Where no end group is shown, it is not given here.

Experiments:
[1] = tested on: HtrA1; assay: phage spot ELISA on HtrA1; type: binding; details: Fig 9A; for ELISA s/n: Spot ELISA signal/noise; for ELISA signal: Spot ELISA
Source text: To determine the performance of the libraries for ligand discovery we chose a panel of eight protein targets, which have no structural homology and a wide mass range (Fig 7C). We screened these eight targets with solution panning strategy and two additional plate panning for CD8α/β and CD28, thus ten panning campaigns in total. We consider clones showing spot phage ELISA signal > 0.3 and signal/noise ratio > 2 as positive hits. […] We also obtained the NGS data for these screening and the ranking of clones for their enrichment along the rounds of screening was analyzed and considered the top-ranking clones as potential hits. Based on their sequence diversity we selected 16 potential hits spanning five protein targets for peptide synthesis in their linear form. Seven of these are hits with positive phage ELISA signal and nine were selected based on NGS ranking without spot ELISA available. Subsequently, we conducted in vitro folding experiments on these peptides in various buffers.
(§1) The 5ji4 libraries were constructed following the Kunkel mutagenesis method and the solution panning protocol was followed as previously described. After four to five rounds of binding selection, while eluted pool was subjected to NGS analysis, individual phage clones were also picked and analyzed with phage spot ELISA. Positive clones were subjected to SANGER sequencing.
Among these five hits, A7, which is the SANGER hit, was picked for affinity maturation. Following the same strategy, one soft- and one hard-randomization library was designed targeting the 5JI4 variable regions 1 and 2, respectively. Two libraries were each panned as previously described. Both phage spot ELISA coupled with SANGER sequencing and NGS analysis were applied after affinity maturation.

[2] = molecular target: T1, human full-length HtrA1 (Homo sapiens, UniProt Q92743); assay: HtrA1 enzymatic assay; type: biochemical
T1 construct: we used human full-length HtrA1 (HtrA1), which was expressed in Trichoplusia ni cells; made in house; host or cells: Trichoplusia ni cells
T1 sequence (Q92743 23-480): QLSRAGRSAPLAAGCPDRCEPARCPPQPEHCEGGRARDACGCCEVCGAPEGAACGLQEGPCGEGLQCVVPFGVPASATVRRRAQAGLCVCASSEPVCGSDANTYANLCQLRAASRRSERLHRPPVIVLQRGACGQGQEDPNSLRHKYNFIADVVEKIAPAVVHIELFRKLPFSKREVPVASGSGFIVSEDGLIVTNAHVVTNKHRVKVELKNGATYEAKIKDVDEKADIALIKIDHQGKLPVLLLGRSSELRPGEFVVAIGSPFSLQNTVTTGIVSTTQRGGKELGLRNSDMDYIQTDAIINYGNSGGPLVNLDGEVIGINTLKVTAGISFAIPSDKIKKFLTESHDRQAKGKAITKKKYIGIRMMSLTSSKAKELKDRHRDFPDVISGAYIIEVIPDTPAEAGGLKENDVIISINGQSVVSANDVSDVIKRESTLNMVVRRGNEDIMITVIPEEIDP
Description: For enzymatic assays we used human full-length HtrA1 (HtrA1), which was expressed in Trichoplusia ni cells and purified as described. Enzyme assays with the fluorescence-quenched synthetic substrate Mca-[…](Dnp)KK (H2-OPT) were carried out essentially as described. […] A 10 mM stock solution of H2-OPT in DMSO was diluted with water, prewarmed at 37°C and then added to the HCP-enzyme mixtures. The final concentrations in the reaction mixtures were: 1 nM HtrA1, 5 μM H2-OPT, 0.1% DMSO and varied concentrations of HCP. Substrate cleavage was measured at 37°C on a SPECTRAmax M5 microplate reader (Molecular Devices) and the initial rates of cleavage determined. The IC50 values were determined by fitting the data to the 4 parameter sigmoid function.

[3] = tested on: CD8α; assay: phage spot ELISA on CD8α; type: binding
Source text: (§2) To determine the performance of the libraries for ligand discovery we chose a panel of eight protein targets, which have no structural homology and a wide mass range (Fig 7C). We screened these eight targets with solution panning strategy and two additional plate panning for CD8α/β and CD28, thus ten panning campaigns in total. We consider clones showing spot phage ELISA signal > 0.3 and signal/noise ratio > 2 as positive hits. At least one binding hit was discovered for nine out of the ten panning campaigns, surpassing the success rate of the best DCP scaffolds reported previously. We also obtained the NGS data for these screening and the ranking of clones for their enrichment along the rounds of screening was analyzed and considered the top-ranking clones as potential hits. Based on their sequence diversity we selected 16 potential hits spanning five protein targets for peptide synthesis in their linear form. Seven of these are hits with positive phage ELISA signal and nine were selected based on NGS ranking without spot ELISA available. Subsequently, we conducted in vitro folding experiments on these peptides in various buffers. We observed a strong propensity for spontaneous folding regardless of the buffer condition. All HCP hits tested successfully folded into three-disulfide-containing product within two days in a universal buffer system (PBS, pH 7.4, 50% DMSO) without the need for a redox pair, as shown in Fig 8A. The binding of these folded peptides to their respective target proteins was confirmed using SPR (Table 4 and S1 Data) and binding kinetics are exemplified by the high-affinity peptide 5ji4-CRD7-2 (see Fig 8B). Among seven selected ELISA-positive hits, all of them were successfully synthesized and in vitro folded with three disulfide bonds and five were proven to be validated binders by SPR (Table 4). Nine peptides selected from the NGS ranking were synthesized and folded with the expected number of disulfide bonds and five of them bound to their target with affinities in the μM range as determined by SPR (Table 4). In general, binding affinities for these SPR-validated initial hits are weak, with Kd values in the micromolar range and fast on- and off-rates. There are two exceptions with binding affinities in the nanomolar range.
as §1

[4] = molecular target: T2, CD8α-Fc (Homo sapiens, UniProt P01732); assay: SPR binding to CD8α-Fc; details: folded synthetic peptide; Biacore S200, 25°C, HBS-EP w. 5% DMSO, single-cycle kinetics; kinetic fitting (values not marked *); N.B. = no binding
T2 construct: purchased R&D AVI10927
T2 sequence (P01732 22-182 limits assumed): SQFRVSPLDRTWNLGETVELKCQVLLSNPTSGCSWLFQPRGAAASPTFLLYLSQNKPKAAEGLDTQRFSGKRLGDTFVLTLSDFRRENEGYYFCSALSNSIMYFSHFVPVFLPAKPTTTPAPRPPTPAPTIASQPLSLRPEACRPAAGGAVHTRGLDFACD
Description: (§3) Peptide synthesis was done by CSBio (Menlo Park, CA). The linear peptides were synthesized as free N- and C- terminus. For the small-scale in vitro folding test, linear peptides were dissolved in 100% DMSO as 10 mg/ml stock, then 1/20 diluted into folding buffers. Five different buffer conditions were tested: [1] 0.1 M NH4HCO3 pH 9.0, 2 mM reduced glutathione, 0.5 mM oxidized glutathione, and 9% DMSO; [2] 0.1 M NH4HCO3 pH 8.0, 1 mM reduced glutathione, and 55% DMSO; [3] dI-water w. 5% DMSO; [4] 1X PBS pH 7.4 w. 10% DMSO; and [5] 1X PBS pH 7.4 w. 50% DMSO. Refolding was promoted by incubation at R.T. with gentle rotation and monitored by LC-MS for disulfide bond formation. […] Therefore, buffer condition was used as a universal refolding buffer for all HCP peptides. After refolding, peptides with three disulfide bonds were purified by HPLC according to standard procedure and subjected to SPR measurements.
(§4) All binding experiments were performed using a Biacore S200 instrument (GE Healthcare) at 25°C at a flow rate of 30 μl/min in HBS-EP buffer (Cytiva, #BR100188) w. 5% DMSO. The kinetics and affinity measurements were carried out using single-cycle kinetics (SCK) and referenced by subtracting the signal from the blank flow cell. […]

[5] = molecular target: CD28-Fc (Homo sapiens, UniProt P10747); assay: SPR binding to CD28-Fc; parameters: purchased R&D 342-CD-200; details: folded synthetic peptide; Biacore S200, 25°C, HBS-EP w. 5% DMSO, single-cycle kinetics; kinetic fitting (values not marked *); N.B. = no binding
Sequence of CD28-Fc (P10747 19-152 limits assumed): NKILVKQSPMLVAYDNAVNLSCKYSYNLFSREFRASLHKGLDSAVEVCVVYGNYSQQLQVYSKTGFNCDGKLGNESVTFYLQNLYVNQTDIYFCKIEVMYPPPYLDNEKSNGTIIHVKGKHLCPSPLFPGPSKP
Description: as §3, §4

[6] = tested on: CD28; assay: phage spot ELISA on CD28; type: binding
Source text: as §2, §1

[7] = molecular target: T3, Fz7CRD-Fc (Homo sapiens, UniProt O75084); assay: SPR binding to Fz7CRD-Fc; details: folded synthetic peptide; Biacore S200, 25°C, HBS-EP w. 5% DMSO, single-cycle kinetics; kinetic fitting (values not marked *); N.B. = no binding
T3 construct: Fz7CRD-Fc (R&D, #6178-FZ-50); purchased R&D 6178-FZ-50

[8] = molecular target: T4, HtrA1^PD-S/A (human, UniProt Q92743 161-379, S328A); assay: SPR; Biacore S200, HtrA1^PD-S/A on Series S Sensor Chip SA, peptide flowed, 25°C, 30 μl/min, HBS-EP with 5% DMSO; fit model not told for these values; details: both partners purified
T4 construct: serine protease HtrA1, D161-K379 with S328A; source: E. coli, produced in-house (Genentech)
T4 sequence (Q92743 161-379 S328A): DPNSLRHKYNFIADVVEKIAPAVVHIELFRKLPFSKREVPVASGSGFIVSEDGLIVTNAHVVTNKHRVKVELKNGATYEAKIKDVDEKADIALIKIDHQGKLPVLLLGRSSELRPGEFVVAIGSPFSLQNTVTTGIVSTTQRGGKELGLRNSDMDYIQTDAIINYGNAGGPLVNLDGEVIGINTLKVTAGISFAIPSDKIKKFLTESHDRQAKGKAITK

[9] = molecular target: T5, RSP02-Fc (UniProt Q6UXX9 22-243); assay: SPR; Biacore S200, Fc-fusion target on Sensor Chip Protein A, peptide flowed, single-cycle kinetics, three-fold dilution series from approximately 100 μM, 25°C, 30 μl/min, HBS-EP with 5% DMSO; 1:1 binding (kinetic) model, or no binding seen; details: both partners purified
T5 construct: bought as Fc fusion; captured on a Protein A sensor chip by its Fc; source: bought: Biolegend, #786206
T5 sequence (Q6UXX9 22-243): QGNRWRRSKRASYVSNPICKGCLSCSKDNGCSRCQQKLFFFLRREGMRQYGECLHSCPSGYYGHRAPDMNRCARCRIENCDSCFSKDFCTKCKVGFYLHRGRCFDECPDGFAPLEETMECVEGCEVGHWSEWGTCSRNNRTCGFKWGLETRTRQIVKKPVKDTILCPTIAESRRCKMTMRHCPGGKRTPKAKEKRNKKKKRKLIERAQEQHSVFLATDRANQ

[10] = molecular target: human full-length HtrA1 (human, UniProt Q92743 23-480); assay: cell-based or functional assay
Sequence of human full-length HtrA1 (human, UniProt Q92743 23-480) (Q92743 23-480): as the sequence (Q92743 23-480) above

[11] = molecular target: VEGF_(8-109) (UniProt P15692); assay: SPR; Biacore S200, target on Series S Sensor Chip SA, peptide flowed, single-cycle kinetics, three-fold dilution series from approximately 100 μM, 25°C, 30 μl/min, HBS-EP with 5% DMSO; steady-state equilibrium model
[12] = phage spot ELISA of the clone, positive hit: signal > 0.3 and signal/noise > 2
[13] = phage spot ELISA signal/noise ratio

**Q.** What does the source list for `CC[C@H](C)[C@@H]1NC(=O)[C@H]([C@@H](C)O)NC(=O)[C@@H]2CSSC[C@H](NC(=O)[C@H](CCC(=O)O)NC(=O)[C@H](C)NC(=O)[C@H](CO)NC(=O)[C@H](CO)NC(=O)[C@H]([C@@H](C)O)NC(=O)[C@H](CC(C)C)NC(=O)[C@H](Cc3ccccc3)NC(=O)[C@H](Cc3c[nH]cn3)NC(=O)[C@H](Cc3c[nH]c4ccccc34)NC(=O)CNC(=O)[C@H](CCCNC(=N)N)NC(=O)[C@H](CC(C)C)NC1=O)C(=O)N[C@@H](CCC(=O)O)C(=O)N[C@@H](CCCNC(=N)N)C(=O)N[C@@H](CC(C)C)C(=O)N[C@H]1CSSC[C@H](NC(=O)[C@H]([C@@H](C)O)NC(=O)[C@H](CCCNC(=N)N)NC(=O)[C@H](CC(C)C)NC(=O)CNC(=O)[C@H](CC(C)C)NC(=O)[C@H](CCCNC(=N)N)NC(=O)[C@H](CC(=O)O)NC1=O)C(=O)N[C@@H](CCCNC(=N)N)C(=O)N[C@@H](C(C)C)C(=O)N[C@@H](Cc1c[nH]cn1)C(=O)N[C@H](C(=O)NCC(=O)O)CSSC[C@H](NC(=O)[C@@H]1CCCN1)C(=O)N[C@@H](CCC(=O)O)C(=O)N2` [5ji4_A7] (H-PCECTILRGWHFLTSSAECERLCDRLGLRTCRVHCG-OH; disulfide 2-35, 4-19, 23-31)?
**A.** ELISA s/n [1]: 5.8; ELISA signal [1]: 3.36; inhibition of HtrA1 activity ([2]; maximal inhibition in the concentration-response): complete inhibition

**Q.** For “P C D C DVNGETYTVSSSEE C EPL C LNWLSSL C RVH C G (bicyclic or more) [5ji4-CD8-16, 5JI4 library hit for CD8α, synthesized and folded in vitro]”, which ELISA signal [3, 12] is on record?
**A.** 3.43

**Q.** What about the ELISA s/n [3, 13] of the same molecule?
**A.** 37.34

**Q.** And the “SPR Kd” value [4]?
**A.** N.B.

**Q.** Which results are given for “PCECDVNGETYTVSSSEECERLCRKLGVTNCRVHCG (also: bicyclic or more (positions not given here)) [5ji4, reference compound]”?
**A.** ELISA s/n [1]: 1.4; ELISA signal [1]: 0.83; IC50 ([2]; 1 nM HtrA1, 5 μM H2-OPT substrate, 0.1% DMSO, 15 min pre-incubation, 37°C, pH 8.0, 4 parameter fit): not inhibitory

**Q.** Which “SPR Kd” value [5] does the source give for “P C E C DVNGETYTVSSSEG C ERL C SWDQGKW C RVH C G (bicyclic or more) [5ji4-CD28-7, 5JI4 library hit for CD28, synthesized and folded in vitro]” here?
**A.** N.B.

**Q.** And the ELISA signal [6, 12]?
**A.** 0.25

**Q.** And the ELISA s/n [6, 13]?
**A.** 3.48

**Q.** Which “SPR Kd” value [5] does the source give for “P C E C EDTTFFIIFNSSEE C ERL C RKLGVTN C RVH C G (bicyclic or more) [5ji4-CD28-4, 5JI4 library hit for CD28, synthesized and folded in vitro]” here?
**A.** N.B.

**Q.** With “P C E C PIRPYGVPVKSSEE C ERL C MNDWATT C RVH C G (bicyclic or more) [5ji4-CRD7-5, 5JI4 library hit for CRD7, synthesized and folded in vitro]” as the molecule, how does the “SPR Kd” value [7] read?
**A.** N.B.

**Q.** Which “SPR Kd” value [4] does the source give for “P C E C LVTPYKDDYKSSEE C ERL C RKLGVTN C RVH C G (bicyclic or more) [5ji4-CD8-8, 5JI4 library hit for CD8α, synthesized and folded in vitro]” here?
**A.** N.B.

B1: 5ji4-A7 (peptide)
chain: H-PCECTILRGWHFLTSSAECERLCRKLGVTNCRVHCG-OH
modifications: disulfide (positions not given here); also: three disulfide bonds, pairing not given here
**Q.** With B1 as the molecule, how does the Kd [8] read?
**A.** 2.72 µM

B2: 5ji4-RSP-1 (peptide)
chain: PCECDVNGETYTVSSSEECEPLCWMYNEHFCRVHCG
notes: hit from the 5JI4 scaffold phage libraries; free N- and C-termini; three disulfide bonds; source: synthetic peptide (CSBio), folded in vitro, HPLC purified
**Q.** B2 was tested. Which Kd [9] did it give?
**A.** 22 ± 17 µM

**Q.** Which “inhibition of HtrA1 enzyme activity (cleavage of the fluorescence-quenched substrate H2-OPT), IC50” value [10] does the source give for PCECTILRGWHFLTSSAECERLCRKLGVTNCRVHCG here?
**A.** 38 µM

**Q.** How did the Kd [11] turn out when PCECFMYDILVGLASSEECKRLCWGFGQSDCRVHCG [5ji4-VEGF-5] was run?
**A.** 86 µM
